Experimental data reported in publication PMC11199504, “New hemisynthetic derivatives of sphaeropsidin phytotoxins triggering severe endoplasmic reticulum swelling in cancer cells” (Scientific Reports, 2024).
Read-outs that look alike come from different tables or passages of the source.

Experiments:
[1] = tested on: 60 cancer cell line panel; conditions: NCI database value; ref NCI database; read-out: LC50 (NCI); cited from earlier work
MCF7 = test: MTT colorimetric assay, MCF7; assay type: cell-based; conditions: Homo sapiens, 72 h treatment, mean ± SEM, sensitive to apoptosis, read-out: IC50 determined by MTT assays, MCF7
Text: (§1) Cancer cell lines were obtained from either the European Collection of Cell Cultures (ECACC; Salisbury, UK) or the American Type Culture Collection (ATCC; Manassas, VA). The two glioma cell lines were the U373 (ECACC code 08061901) and Hs683 (ATCC HTB-138) cell lines. The carcinoma cell lines were the A549 non-small cell carcinoma cell line (ATCC code CCL 185) and the MCF-7 mammary breast carcinoma cell line (ATCC code HTB-22). The melanoma cell lines were the mouse B16F10 cells (ATCC code CRL-6475) and the human SKMEL-28 cells (ATCC code HTB-72). The ovarian cancer cell line A2780 and its cisplatin-resistant subline A2780cis were obtained from Sigma-Aldrich (St. Louis, MO, USA). Colon cancer HCT116 cells were obtained from ATCC (CCL-247) and the oxaliplatin-resistant subline HCT116/OxR established in the W. Berger lab[59]. The HeLa cell derivative KB-3-1 and the colchicine-selected, highly ABCB1-overexpressing subline KB-C-1 were generously donated by Dr. D. W. Shen, Bethesda, MD. RKOp53wt colon cancer cells together with the RKOp53KO (homozygous knock-out) subline[60] were generously provided by Dr. Vogelstein from John Hopkins University, Baltimore. The correct origin of all cell models was confirmed by STR during performance of the experiments. All cell lines were cultured in RPMI1640 culture medium supplemented with 10% heat-inactivated fetal bovine serum, 2% L-glutamine (0.6 mg/mL), 2% penicillin/streptomycin (200 IU/mL and 200 μg/mL) and 0.1 mg/mL gentamicin.
(§2) The MTT (3-(4,5-dimethylthiazol-2-yl)-2,5-diphenyl tetrazolium bromide) colorimetric assay has been conducted as described previously. Briefly, cells were seeded 24 h before their treatment with each compound for a period of 72 h. The concentrations tested ranged from 10 nM to 100 µM. Each assay was conducted in sextuplicates. The number of independent experiments is mentioned in the legend of the tables.

A549 = test: MTT colorimetric assay, A549; assay type: cell-based; conditions: Homo sapiens, 72 h treatment, mean ± SEM of six replicates of one experiment (1: 7, 13: 6 independent experiments), resistant to apoptosis, read-out: IC50 determined by MTT assays, A549
Text: as §1, §2

B16F10 = test: MTT colorimetric assay, B16F10; assay type: cell-based; conditions: Mus musculus, B16-F10; 72 h treatment; mean ± SEM; sensitive to apoptosis; read-out: IC50 determined by MTT assays, B16F10
Text: as §1, §2

SKMEL-28 = test: MTT colorimetric assay, SKMEL-28; assay type: cell-based; conditions: Homo sapiens, SK-MEL-28; 72 h treatment; mean ± SEM; resistant to apoptosis; read-out: IC50 determined by MTT assays, SKMEL-28
Text: as §1, §2

Hs683 = test: MTT colorimetric assay, Hs683; assay type: cell-based; conditions: Homo sapiens, Hs 683; 72 h treatment; mean ± SEM; sensitive to apoptosis; read-out: IC50 determined by MTT assays, Hs683
Text: as §1, §2

U373 = test: MTT colorimetric assay, U373; assay type: cell-based; conditions: Homo sapiens, U373 MG; 72 h treatment; mean ± SEM; resistant to apoptosis; read-out: IC50 determined by MTT assays, U373
Text: as §1, §2

[2] = tested on: SKMEL-28 melanoma and U373 glioblastoma cells; test: Morphological evaluation by phase contrast microscopy / videomicroscopy; assay type: cell-based, human; conditions: videomicroscopy in SKMEL-28 cells
Procedure: For the morphological evaluation of the effects induced by compounds 1 and 13, 6 × 10^4 cells were seeded on glass coverslips placed in 6 well plates a minimum 24 h before their treatment. At the end of the incubation period with the treatment, coverslips were rinsed once in PBS buffer and directly mounted on slides to allow visualization of the cell with an Axio.Imager.M2 microscope (G X40 and G X100).

[3] = tested on: A549, SKMEL-28, U373, MCF7, Hs683, B16F10; test: MTT colorimetric assay, mean of the six cell lines; assay type: cell-based; conditions: for IC50: mean over the six cell lines, 72 h treatment, read-out: IC50 determined by MTT assays, Mean; for activity in the cancer cell panel: MTT, alone
Text: as §1, §2

A2780 = test: MTT assay, A2780 (parental sensitive); assay type: cell-based; conditions: 72 h treatment; ± standard deviation; parental sensitive model; read-out: IC50 determined by MTT assays, A2780
Text: as §1, §2
(§3) SI Table 1: IC50 determined by MTT assays. Mean concentration (± standard deviation) in µM required to
(§4) reduce the viability of cells by 50% after a 72 h treatment relative to the control.
(§5) Parental sensitive models Drug-resistant models

A2780R = test: MTT assay, A2780R (cisplatin-resistant); assay type: cell-based; conditions: 72 h treatment; ± standard deviation; drug-resistant model; read-out: IC50 determined by MTT assays, A2780R
Text: as §1, §2, §3, §4, §5

RKO/P53wt = test: MTT assay, RKO/P53wt (parental sensitive); assay type: cell-based; conditions: 72 h treatment; ± standard deviation; parental sensitive model; read-out: IC50 determined by MTT assays, RKO/P53wt
Text: as §1, §2, §3, §4, §5

RKO/p53ko = test: MTT assay, RKO/p53ko; assay type: cell-based; conditions: 72 h treatment; ± standard deviation; drug-resistant model; read-out: IC50 determined by MTT assays, RKO/p53ko
Text: as §1, §2, §3, §4, §5

KB-3-1 = test: MTT assay, KB-3-1 (parental sensitive); assay type: cell-based; conditions: Homo sapiens, KB 3-1, 72 h, read-out: IC50 determined by MTT assays, KB-3-1
Text: as §1, §2, §3, §4, §5

KB-C-1 = test: MTT assay, KB-C-1 (ABCB1-overexpressing); assay type: cell-based; conditions: KBC-1, 72 h, read-out: IC50 determined by MTT assays, KB-C-1
Text: as §1, §2, §3, §4, §5

Hct116 = test: MTT assay, Hct116 (parental sensitive); assay type: cell-based; conditions: 72 h treatment; ± standard deviation; parental sensitive model; read-out: IC50 determined by MTT assays, Hct116
Text: as §1, §2, §3, §4, §5

Hct116/OxR = test: MTT assay, Hct116/OxR (oxaliplatin-resistant); assay type: cell-based; conditions: 72 h treatment; ± standard deviation; drug-resistant model; read-out: IC50 determined by MTT assays, Hct116/OxR
Text: as §1, §2, §3, §4, §5

Structure (SMILES) | CC50 [1] [nM] | IC50 (MCF7) [nM] | IC50 (A549) [nM] | IC50 (B16F10) [nM] | IC50 (SKMEL-28) [nM] | IC50 (Hs683) [nM] | IC50 (U373) [nM] | IC50 ([3]; 72 h) [nM] | further results
CC(=O)N(C)c1ccc(Nc2cc(C)nc3ccc4[nH]cnc4c23)cc1 [Acodazole] | 114000 |  |  |  |  |  |  |  | 
COc1cc(NS(C)(=O)=O)ccc1Nc1c2ccccc2nc2ccccc12 [Amsacrine] | 25000 |  |  |  |  |  |  |  | 
CNC(=O)ON(C(C)=O)C(=O)NC [Caracemide] | 625000 |  |  |  |  |  |  |  | 
C#CCCCC(=O)OC12OC(=O)C3(CCCC(C)(C)C13)C1(O)CCC(C)(C=C)C=C1C2=O (stereo not drawn) [Compound 3] |  | 3720 ± 270 | 2400 ± 100 | 2600 ± 70 | 2560 ± 90 | 2830 ± 130 | 2370 ± 90 | 2750 ± 210 | delay in the cellular shrinkage versus SphA 1 [2]: ≥ 24 h
C=CC1(C)C=C2C(=O)C3(OC(=O)c4ccccc4)OC(=O)C4(CCCC(C)(C)C34)C2(O)CC1 (stereo not drawn) [Compound 4] |  | 1950 ± 140 | 1760 ± 290 | 1880 ± 100 | 2290 ± 170 | 2500 ± 120 | 2190 ± 70 | 2100 ± 110 | delay in the cellular shrinkage versus SphA 1 [2]: ≥ 24 h
C=CC1(C)C=C2C(=O)C3(OC(=O)CCCCC(=O)O)OC(=O)C4(CCCC(C)(C)C34)C2(O)CC1 (stereo not drawn) [Compound 5] |  | 2090 ± 70 | 1920 ± 70 | 780 ± 90 | 1610 ± 110 | 1960 ± 180 | 1820 ± 140 | 1700 ± 190 | 
COC(=O)CCCC=CC1(C)C=C2C(=O)C3(O)OC(=O)C4(CCCC(C)(C)C34)C2(O)CC1 (stereo not drawn) [Compound 6] |  | 2480 ± 130 | 2660 ± 40 | 1810 ± 140 | 2740 ± 130 | 3330 ± 100 | 2810 ± 80 | 2640 ± 200 | 
COC(=O)CCC=CC1(C)C=C2C(=O)C3(O)OC(=O)C4(CCCC(C)(C)C34)C2(O)CC1 (stereo not drawn) [Compound 7] |  | 6880 ± 260 | 4500 ± 70 | 2330 ± 290 | 5060 ± 580 | 3630 ± 150 | 7750 ± 310 | 5030 ± 820 | 
CC1(C=CCCCC(=O)O)C=C2C(=O)C3(O)OC(=O)C4(CCCC(C)(C)C34)C2(O)CC1 (stereo not drawn) [Compound 8] |  | > 100000 | > 100000 | 81300 ± 2420 | > 100000 | 85300 ± 5250 | > 100000 | > 94000 | activity in the cancer cell panel [3]: inactive; IC50 [3]: > 94400 nM
CCCCC=CC1(C)C=C2C(=O)C3(O)OC(=O)C4(CCCC(C)(C)C34)C2(O)CC1 (stereo not drawn) [Compound 9] |  | 470 ± 30 | 630 ± 30 | 520 ± 20 | 1150 ± 110 | 1110 ± 140 | 1390 ± 150 | 880 ± 160 | 
CC1(C=CCCCCBr)C=C2C(=O)C3(O)OC(=O)C4(CCCC(C)(C)C34)C2(O)CC1 (stereo not drawn) [Compound 10] |  | 5360 ± 580 | 2960 ± 120 | 2000 ± 120 | 3070 ± 100 | 4350 ± 270 | 5010 ± 180 | 3790 ± 540 | 
CC1(C=CCCBr)C=C2C(=O)C3(O)OC(=O)C4(CCCC(C)(C)C34)C2(O)CC1 (stereo not drawn) [Compound 11] |  | 2890 ± 80 | 2000 ± 130 | 2550 ± 130 | 2770 ± 180 | 2990 ± 70 | 2810 ± 80 | 2670 ± 150 | 
CC1(C=Cc2ccccc2)C=C2C(=O)C3(O)OC(=O)C4(CCCC(C)(C)C34)C2(O)CC1 (stereo not drawn) [Compound 12] |  | 3060 ± 220 | 1610 ± 140 | 2520 ± 210 | 2290 ± 90 | 2720 ± 110 | 3060 ± 70 | 2540 ± 220 | 
C=CCCCc1ccc2ccc3cccc4ccc1c2c34 [Compound 14, reference compound] |  | 76000 ± 1550 | 78800 ± 1260 | 73100 ± 1320 | > 100000 | 96120 ± 500 | > 100000 | > 87300 | activity in the cancer cell panel [3]: inactive
CC1(C=CCCCCc2ccc3ccc4cccc5ccc2c3c45)C=C2C(=O)C3(O)OC(=O)C4(CCCC(C)(C)C34)C2(O)CC1 (stereo not drawn) [Compound 23] |  | 420 ± 30 | 600 ± 20 | 270 ± 10 | 370 ± 10 | 640 ± 20 | 660 ± 20 | 490 ± 70 | 
CC1(C=CCCc2ccc3ccc4cccc5ccc2c3c45)C=C2C(=O)C3(O)OC(=O)C4(CCCC(C)(C)C34)C2(O)CC1 (stereo not drawn) [Compound 24] |  | 1200 ± 200 | 1200 ± 200 | 98 ± 40 | 1300 ± 140 | 2400 ± 100 | 2200 ± 200 | 1400 ± 340 | 
COc1ccc(C(=O)/C(Br)=C\C(=O)O)cc1 [Cytembena] | 802000 |  |  |  |  |  |  |  | 
COc1ccc2c(c1)-c1nn(CCCN(C)C)c3ccc([N+](=O)[O-])c(c13)N2 [Pyrazolo acridine] | 23300 |  |  |  |  |  |  |  | 
CC/C(=C(\c1ccccc1)c1ccc(OCCN(C)C)cc1)c1ccccc1 [Tamoxifen] | 26000 |  |  |  |  |  |  |  | 
O=c1n(CC2CO2)c(=O)n(CC2CO2)c(=O)n1CC1CO1 (stereo not drawn) [Teroxirone] | 387000 |  |  |  |  |  |  |  | 
N.N.[Cl][Pt][Cl] [cisplatin] |  |  |  |  |  |  |  |  | IC50 (A2780): 1800 ± 90 nM; IC50 (A2780R): > 10000 nM; IC50 (RKO/P53wt): 2000 ± 300 nM; IC50 (RKO/p53ko): 3700 ± 1200 nM
COc1cccc2c1C(=O)c1c(O)c3c(c(O)c1C2=O)C[C@@](O)(C(=O)CO)C[C@@H]3O[C@H]1C[C@H](N)[C@H](O)[C@H](C)O1 [doxorubicin] |  |  |  |  |  |  |  |  | IC50 (KB-3-1): 59 ± 30 nM; IC50 (KB-C-1): > 250000 nM
O=C1[O][Pt]2([NH][C@@H]3CCCC[C@H]3[NH]2)[O]C1=O [oxaliplatin] |  |  |  |  |  |  |  |  | IC50 (Hct116): 600 ± 80 nM; IC50 (Hct116/OxR): 22100 ± 2300 nM
